Results published in patent publication US12534465B2, “5H-pyrrolo[3,2-d]pyrimidine-2,4-diamino compounds and antibody conjugates thereof” (SUTRO BIOPHARMA, INC., priority 2019, dated 2026).

Assays:
[1] = tested on: MC38-hFolRα tumors; assay: Anti-tumor activity in mice bearing established MC38-hFolRα tumors; assay type: in vivo, mouse; details: Day 0 and 4; for tumor growth inhibition (TGI): compared to vehicle control on day 10, p<0.0001
Source text: This example evaluates the response of MC38-hFolRα tumors to treatment with Compound 2, a TLR 7 agonist.
Female C57BL/6 mice at 9-10 weeks of age were anesthetized with isoflurane and implanted subcutaneously into the right hind flank with 1×10^6 MC38-hFolRα (murine colon adenocarcinoma cells engineered to express hFolRα). Randomization and start of treatment was initiated when the average tumor size was approximately 150 mm^3 (designated as Day 0 post-treatment). Animals received intratumoral (IT) injections of Compound 2 on Day 0 and Day 4 (q4d×2). Compound 2 was dissolved in DMSO and dosing solutions were formulated in PBS. Body weight and tumor size were monitored 3×/week. The primary study endpoint was reached when the mean tumor size of the vehicle control group was >1,200 mm^3.

[2] = tested on: cyno PBMCs; assay: Cytokine release (ELISA); assay type: cell-based, cynomolgus monkey; details: 48 hr, 10 μg/mL LPS-RS
Procedure: (§1) This example evaluates the ability of Compound 10 to induce cytokine release in human PBMCs, cyno PBMCs and mouse splenocytes. Compound 1 and resiquimod:
(§2) Human and cyno PBMCs, mouse splenocytes were isolated as described in previous example. The day of the assay, 300 k of PBMC or splenocytes in 50 μL of culture medium were seeded in 96-well cell culture plates. 50 μl of the test articles (formulated at 2× of starting concentration) were then added into the well. The cell mixtures were co-cultured in the presence of test articles and 10 μg/mL LPS-RS for 24 hr (human PBMCs) or 48 hr (cyno PBMCs and mouse splenocytes). Cytokines released were measured by ELISA using cell culture medium.

[3] = tested on: mouse splenocytes; assay: Cytokine release (ELISA); assay type: cell-based; details: 48 hr, 10 μg/mL LPS-RS
Procedure: as §1, §2

Compound	tumor growth inhibition (TGI) ([1]; 0.1 mg/kg intratumoral)	tumor growth inhibition (TGI) ([1]; 0.5 mg/kg intratumoral)	tumor growth inhibition (TGI) ([1]; 2 mg/kg intratumoral)	MC38-hFolRα tumor growth delay ([1]; 0.1-2 mg/kg intratumoral)	IL-6 release ([2]; FIG. 5A)	MCP-1 release ([2]; FIG. 5B)	IL-6 release ([3]; FIG. 6A)	MCP-1 release ([3]; FIG. 6B)	TNFa release ([3]; FIG. 6C)	IP-10 release ([3]; FIG. 6D)
CCCCCNc1nc(N)nc2ccn(Cc3ccc(CN4CC(NC)C4)cc3OC)c12 [Compound 2, 5-(2-methoxy-4-((3-(methylamino)azetidin-1-yl)methyl)benzyl)-N4-pentyl-5H-pyrrolo[3,2-d]pyrimidine-2,4-diamine]	55%	61%	80%	significantly delayed						
CCCCCNc1nc(N)nc2ccn(Cc3ccc(CN4CC5(CNCCO5)C4)cc3OC)c12 [Compound 10, 5-[[2-methoxy-4-(5-oxa-2,8-diazaspiro[3.5]nonan-2-ylmethyl)phenyl]methyl]-N4-pentyl-pyrrolo[3,2-d]pyrimidine-2,4-diamine]					strong	strong	strong	strong	strong	strong
